pIC50: −log10 of the molar value.
System: 931267-113-T-J1-PDC KRAS spheroid with HUVEC/MSC, viability
Experiment: Anticancer human tumor 931267-113-T-J1-PDC patient-derived colon adenocarcinoma cell line growth inhibition [KRAS2]
Details: for pIC50: curve of first compound; for viability, T/C: stronger effect = lower value
Procedure, shortened: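 Combination screen of spheroid viability in tumor-cell co-cultures with endothelial (HUVEC) and mesenchymal stem cell stroma. Each agent was tested in half-log dilutions, topping at clinical Cmax or at 10 microM without a known Cmax.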

[1] = second compound 0.0316 µM, first compound 0.0316 µM
[2] = second compound 0.0316 µM, first compound 0.1 µM
[3] = second compound 0.0316 µM, first compound 0.316 µM
[4] = second compound 0.0316 µM, first compound 1 µM
[5] = second compound 0.0316 µM, first compound 3.16 µM
[6] = second compound 0.0316 µM, first compound 10 µM
[7] = second compound 0.1 µM, first compound 0.0316 µM
[8] = second compound 0.1 µM, first compound 0.1 µM
[9] = second compound 0.1 µM, first compound 0.316 µM
[10] = second compound 0.1 µM, first compound 1 µM
[11] = second compound 0.1 µM, first compound 3.16 µM
[12] = second compound 0.1 µM, first compound 10 µM
[13] = second compound 0.316 µM, first compound 0.0316 µM
[14] = second compound 0.316 µM, first compound 0.1 µM
[15] = second compound 0.316 µM, first compound 0.316 µM
[16] = second compound 0.316 µM, first compound 1 µM
[17] = second compound 0.316 µM, first compound 3.16 µM
[18] = second compound 0.316 µM, first compound 10 µM
[19] = second compound 1 µM, first compound 0.0316 µM
[20] = second compound 1 µM, first compound 0.1 µM
[21] = second compound 1 µM, first compound 0.316 µM
[22] = second compound 1 µM, first compound 1 µM
[23] = second compound 1 µM, first compound 3.16 µM
[24] = second compound 1 µM, first compound 10 µM
[25] = second compound 3.16 µM, first compound 0.0316 µM
[26] = second compound 3.16 µM, first compound 0.1 µM
[27] = second compound 3.16 µM, first compound 0.316 µM
[28] = second compound 3.16 µM, first compound 1 µM
[29] = second compound 3.16 µM, first compound 3.16 µM
[30] = second compound 3.16 µM, first compound 10 µM
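Further: compound exposure lasted 7 days before the readout.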
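Wherever viability, T/C is given: 100% = DMSO vehicle control viability.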

Row | SMILES | pIC50 (second compound 0.0316 µM) | pIC50 (second compound 0.1 µM) | pIC50 (second compound 0.316 µM) | pIC50 (second compound 1 µM) | pIC50 (second compound 3.16 µM) | viability, T/C [1] | viability, T/C [2] | viability, T/C [3] | viability, T/C [4] | viability, T/C [5] | viability, T/C [6] | viability, T/C [7] | viability, T/C [8] | viability, T/C [9] | viability, T/C [10] | viability, T/C [11] | viability, T/C [12] | viability, T/C [13] | viability, T/C [14] | viability, T/C [15] | other results
1 | COc1cc(Nc2ncc3c(n2)-c2ccc(Cl)cc2C(c2c(F)cccc2OC)=NC3)ccc1C(=O)O + C=CC(=O)N1CCN(c2nc(OCC3CCCN3C)nc3c2CCN(c2cccc4cccc(C)c24)C3)CC1CC#N | < 5.00 | < 5.00 | < 5.00 | 5.30 | > 7.50 | 87.9% | 89.5% | 93.8% | 75.6% | 95.8% | 68.1% | 106% | 89.7% | 85.6% | 88% | 68.6% | 58.3% | 93.5% | 91.8% | 91.7% | viability, T/C [16]: 55.6%; viability, T/C [17]: 70%; viability, T/C [18]: 63%; viability, T/C [19]: 92.6%; viability, T/C [20]: 60.3%; viability, T/C [21]: 66.4%; viability, T/C [22]: 64.1%; viability, T/C [23]: 66%; viability, T/C [24]: 31.8%; viability, T/C [25]: 0.22%; viability, T/C [26]: 0.29%; viability, T/C [27]: 0.25%; viability, T/C [28]: 0.3%; viability, T/C [29]: 0.17%; viability, T/C [30]: 0.23%
2 | COc1cc2nccc(Oc3ccc(NC(=O)C4(C(=O)Nc5ccc(F)cc5)CC4)cc3)c2cc1OC + C=CC(=O)N1CCN(c2nc(OCC3CCCN3C)nc3c2CCN(c2cccc4cccc(C)c24)C3)CC1CC#N | < 5.00 | < 5.00 | < 5.00 | 5.61 | > 7.50 | 107% | 98.3% | 95.2% | 98.7% | 64.7% | 59.5% | 107% | 97.9% | 106% | 104% | 66.6% | 50.9% | 108% | 119% | 108% | viability, T/C [16]: 110%; viability, T/C [17]: 71.9%; viability, T/C [18]: 51.8%; viability, T/C [19]: 92.3%; viability, T/C [20]: 101%; viability, T/C [21]: 92.8%; viability, T/C [22]: 104%; viability, T/C [23]: 37%; viability, T/C [24]: 15.6%; viability, T/C [25]: 16.2%; viability, T/C [26]: 13.8%; viability, T/C [27]: 0.57%; viability, T/C [28]: 0.23%; viability, T/C [29]: 2.35%; viability, T/C [30]: 0.23%
3 | O=C(c1cc(Cc2n[nH]c(=O)c3ccccc23)ccc1F)N1CCN(C(=O)C2CC2)CC1 + C=CC(=O)N1CCN(c2nc(OCC3CCCN3C)nc3c2CCN(c2cccc4cccc(C)c24)C3)CC1CC#N | < 5.00 | < 5.00 | < 5.00 | < 5.00 | > 7.50 | 91% | 91.8% | 90.8% | 109% | 113% | 103% | 84.7% | 99.4% | 81.3% | 79% | 73.9% | 84.7% | 84.6% | 96.5% | 87% | viability, T/C [16]: 69.3%; viability, T/C [17]: 76.1%; viability, T/C [18]: 72.5%; viability, T/C [19]: 72.2%; viability, T/C [20]: 79.3%; viability, T/C [21]: 87.2%; viability, T/C [22]: 69.4%; viability, T/C [23]: 80.2%; viability, T/C [24]: 62.5%; viability, T/C [25]: 0.28%; viability, T/C [26]: 0.21%; viability, T/C [27]: 0.3%; viability, T/C [28]: 0.29%; viability, T/C [29]: 0.28%; viability, T/C [30]: 0.43%
